In US20020059032A1, “Rational selection of putative peptides from identified nucleotide or peptide sequences” (priority 1999, published 2002):
Where a SMILES comes first, the peptide text is derived from it.

biological target: guinea pig brain membranes; assay: Binding test with guinea pig brain membranes; conditions: tested on guinea pig brain membranes; read-out: IC50 = 100 μM
Method: Binding Assay Alternative Protocol by Skatron
The experimental conditions are identical for all the binding assay protocols except for the fact that: i) the volume R in operation is 200 μl; ii) the test carried out in 96-well Falcon plates iii) the reaction is directly stopped by filtration on filterMat (ref. 11734) Skatron and the radioactivity associated with the filtrate is evaluated: either directly with a γ counter for the peptides labelled with […]: or with a […] in the presence of 5 ml of scintillating liquid.
Membrane Preparations of Guinea Pig Brains and Binding Assay
The guinea pigs are sacrificed by rupturing their cervical vertibrae, decapitated, and the brains are removed very rapidly and placed into a sucrose-Tris-HCl buffer (0.32 M sucrose 5 mM, Tris-HCl, 0.1 g/l bacitracin) at 4° C. (about 10 ml of buffer per brain). The brains are then homogenized using a Potter device and the homogenate is placed in incubation for 30 minutes at 37° C. under agitation, then centrifuged twice for 35 minutes at 100,000×g at 4° C. The protein content of the membrane preparations is evaluated according to the Bradford method (BioRad, according to the manufacturers protocol).
Bonding of Labelled Agonists to the Guinea Pig Brain Membrane Preparation The membranes are placed in a buffer (50 mM of Tris-HCl, 5 mM of MgCl2 and 0.1 g/l of bacitracin) at the desired protein concentration (iodized CCK bond, 0.1 mg of protein/ml; iodized gastrin bond: 0.5 mg of proteins/ml). They are then incubated in the presence of a labelled ligand in a total volume of 500 μl (about 10 pM for the iodized CCK8, 20 pM for the iodized gastrin13), 50-80 minutes at 25° C., and in the presence or absence of cold agonists. The reaction is stopped with 3 ml of additional BSA buffer (20 g/l) at 4° C., the tubes are centrifuged at 10,000×g, the supernatant is drawn off and the radioactivity associated with the precipitate is evaluated with a γ counter.

IC50 [nM] | SMILES
80 | CSCC[C@H](NC(=O)CNC(=O)[C@H](Cc1ccccc1)NC(=O)[C@H](CC(=O)O)NC(=O)[C@H](CCCNC(=N)N)NC(=O)[C@H](CCSC)NC(=O)[C@@H](NC(=O)[C@@H](NC(=O)[C@@H](NC(=O)[C@H](CO)NC(=O)[C@@H](N)Cc1ccccc1)C(C)C)[C@@H](C)O)[C@@H](C)O)C(N)=O [Example 16, H-FSVTTMRDFGM-NH2] (H-FSVTTMRDFGM-NH2)
680 | CC(C)C[C@H](NC(=O)[C@H](CCC(=O)O)NC(=O)[C@H](CC(=O)O)NC(=O)[C@H](CC(C)C)NC(=O)[C@@H](NC(=O)[C@H](Cc1ccccc1)NC(=O)[C@H](C)NC(=O)[C@H](Cc1c[nH]cn1)NC(=O)[C@H](CO)NC(=O)[C@H](CO)NC(=O)[C@@H](N)CC(=O)O)[C@@H](C)O)C(=O)N[C@@H](CCCNC(=N)N)C(N)=O [Example 17, H-DSSHAFTLDELR-NH2] (H-DSSHAFTLDELR-NH2)
800 | CSCC[C@H](NC(=O)[C@@H](N)CC(=O)O)C(=O)N[C@H](C(=O)N[C@H](C(=O)N[C@@H](Cc1ccccc1)C(=O)N[C@@H](CC(C)C)C(=O)N[C@@H](CC(=O)O)C(=O)NCC(=O)NCC(=O)N[C@@H](CCC(N)=O)C(=O)N[C@@H](CC(C)C)C(=O)NCC(=O)N[C@H](C(=O)N[C@@H](CC(C)C)C(=O)N[C@H](C(N)=O)C(C)C)[C@@H](C)O)C(C)C)C(C)C [Example 18, H-DMVVFLDGGQLGTLV-NH2] (H-DMVVFLDGGQLGTLV-NH2)
700 | CC[C@H](C)[C@H](NC(=O)[C@H](Cc1c[nH]cn1)NC(=O)[C@@H](N)CC(C)C)C(=O)N[C@@H](CO)C(=O)N[C@@H](Cc1c[nH]cn1)C(=O)N[C@@H](CC(=O)O)C(=O)N[C@@H](CCSC)C(=O)N[C@H](C(=O)NCC(=O)N1CCC[C@H]1C(=O)N[C@@H](CC(=O)O)C(N)=O)[C@@H](C)O [Example 19, H-LHISHDMTGPD-NH2] (H-LHISHDMTGPD-NH2)
350 | CC[C@H](C)[C@H](NC(=O)CNC(=O)[C@H](CCC(=O)O)NC(=O)[C@H](CC(C)C)NC(=O)[C@@H](N)CO)C(=O)N[C@@H](Cc1ccccc1)C(=O)N[C@@H](CC(=O)O)C(=O)N[C@@H](CC(=O)O)C(=O)N[C@H](C(=O)N[C@H](C(=O)N1CCC[C@H]1C(=O)N[C@@H](CC(=O)O)C(N)=O)C(C)C)[C@@H](C)CC [Example 20, H-SLEGIFDDIVPD-NH2] (H-SLEGIFDDIVPD-NH2)
160 | CSCC[C@H](NC(=O)[C@H](Cc1ccccc1)NC(=O)[C@H](Cc1ccc(O)cc1)NC(=O)[C@H](CC(N)=O)NC(=O)[C@@H](N)CO)C(=O)N1CCC[C@H]1C(=O)N[C@@H](Cc1ccccc1)C(=O)N[C@@H](CO)C(=O)N[C@@H](C)C(N)=O [Example 21, H-SNYFMPFSA-NH2] (H-SNYFMPFSA-NH2)
2800 | CC[C@H](C)[C@H](NC(=O)[C@H](CO)NC(=O)[C@H](Cc1ccccc1)NC(=O)[C@@H]1CCCN1C(=O)[C@@H](NC(=O)[C@H](Cc1ccccc1)NC(=O)[C@H](C)NC(=O)[C@H](CC(=O)O)NC(=O)[C@@H](N)CO)C(C)C)C(N)=O [Example 22, H-SDAFVPFSI-NH2] (H-SDAFVPFSI-NH2)
1300 | CC(C)C[C@H](NC(=O)[C@H](C)NC(=O)CNC(=O)[C@@H](NC(=O)[C@@H](N)CCCNC(=N)N)[C@@H](C)O)C(=O)N[C@H](C(=O)N[C@@H](CC(C)C)C(=O)N[C@@H](CO)C(=O)N[C@@H](CCCNC(=N)N)C(=O)NCC(N)=O)C(C)C [Example 23, H-RTGALVLSRG-NH2] (H-RTGALVLSRG-NH2)
230 | C[C@H](NC(=O)[C@H](CCC(=O)O)NC(=O)[C@@H]1CCCN1C(=O)[C@H](CCC(N)=O)NC(=O)[C@H](Cc1ccccc1)NC(=O)[C@H](CO)NC(=O)[C@H](CO)NC(=O)[C@@H](N)CCC(=O)O)C(=O)NCC(=O)N[C@@H](Cc1ccccc1)C(N)=O [Example 24, H-ESSFQPEAGF-NH2] (H-ESSFQPEAGF-NH2)
310 | CC[C@H](C)[C@H](NC(=O)[C@@H]1CCCN1C(=O)CNC(=O)CN)C(=O)N[C@@H](CO)C(=O)N[C@@H](Cc1ccccc1)C(=O)N[C@@H](CO)C(=O)N[C@@H](CO)C(=O)N[C@@H](CO)C(=O)N[C@@H](CCCNC(=N)N)C(=O)N[C@@H](CO)C(N)=O [Example 25, H-GGPISFSSSRS-NH2] (H-GGPISFSSSRS-NH2)
680 | CC(C)C[C@H](NC(=O)[C@H](CO)NC(=O)[C@@H](NC(=O)[C@H](CC(=O)O)NC(=O)[C@@H](N)CO)[C@@H](C)O)C(=O)N[C@H](C(=O)N[C@@H](Cc1c[nH]c2ccccc12)C(=O)N[C@@H](CC(N)=O)C(=O)N[C@@H](CO)C(=O)N[C@H](C(=O)N[C@@H](CCCCN)C(N)=O)C(C)C)[C@@H](C)O [Example 27, H-SDTSLTWNSVK-NH2] (H-SDTSLTWNSVK-NH2)
400 | CSCC[C@H](NC(=O)CNC(=O)[C@H](Cc1ccccc1)NC(=O)[C@H](CC(N)=O)NC(=O)[C@H](CCCNC(=N)N)NC(=O)[C@H](CC(C)C)NC(=O)[C@@H](NC(=O)[C@H](CCSC)NC(=O)[C@H](CC(C)C)NC(=O)[C@H](CO)NC(=O)[C@@H](N)Cc1ccccc1)[C@@H](C)O)C(N)=O [Example 28, H-FSLMTLRNFGM-NH2] (H-FSLMTLRNFGM-NH2)
10 | CC(C)C[C@H](NC(=O)[C@@H]1CCCN1C(=O)[C@H](CC(C)C)NC(=O)[C@H](CCC(N)=O)NC(=O)[C@@H](N)Cc1ccccc1)C(=O)N[C@@H](CC(=O)O)C(=O)N[C@@H](CCCCN)C(=O)NCC(=O)N[C@@H](CC(N)=O)C(N)=O [Example 29, H-FQLPLDKGN-NH2] (H-FQLPLDKGN-NH2)
27000 | CC[C@H](C)[C@H](NC(=O)[C@H](CO)NC(=O)[C@H](Cc1ccccc1)NC(=O)[C@@H](N)CO)C(=O)N[C@H](C(=O)NCC(=O)N[C@@H](CC(=O)O)C(=O)N[C@@H](Cc1ccccc1)C(=O)N[C@@H](CCC(N)=O)C(=O)N[C@@H](CC(N)=O)C(N)=O)[C@@H](C)CC [Example 30, H-SFSIIGDFQN-NH2] (H-SFSIIGDFQN-NH2)
200 | CC[C@H](C)[C@H](NC(=O)[C@H](CCC(=O)O)NC(=O)[C@H](C)NC(=O)[C@@H](N)C(C)C)C(=O)N[C@@H](CCC(N)=O)C(=O)NCC(=O)N[C@@H](Cc1c[nH]cn1)C(=O)N[C@@H](C)C(=O)NCC(N)=O [Example 32, H-VAEIQGHAG-NH2] (H-VAEIQGHAG-NH2)
100 | CC[C@H](C)[C@H](NC(=O)[C@H](CC(N)=O)NC(=O)[C@H](Cc1c[nH]cn1)NC(=O)[C@@H](N)CC(C)C)C(=O)N[C@@H](CC(C)C)C(=O)NCC(=O)N[C@H](C(=O)N[C@@H](CCC(=O)O)C(=O)N[C@H](C(=O)NCC(=O)NCC(=O)N1CCC[C@H]1C(=O)NCC(N)=O)[C@@H](C)O)C(C)C [Example 33, H-LHNILGVETGGPG-NH2] (H-LHNILGVETGGPG-NH2)
1000 | CC(C)C[C@H](NC(=O)[C@H](CC(N)=O)NC(=O)[C@H](CC(=O)O)NC(=O)[C@H](Cc1c[nH]c2ccccc12)NC(=O)[C@@H](NC(=O)[C@H](CC(C)C)NC(=O)[C@H](CC(=O)O)NC(=O)[C@H](CO)NC(=O)[C@H](C)NC(=O)[C@@H](N)CO)[C@@H](C)O)C(=O)N[C@@H](CCCCN)C(N)=O [Example 34, H-SASDLTWDNLK-NH2] (H-SASDLTWDNLK-NH2)
5600 | CC[C@H](C)[C@H](N)C(=O)N[C@@H](CO)C(=O)N[C@@H](CCC(=O)O)C(=O)N[C@@H](CC(C)C)C(=O)N[C@@H](Cc1ccccc1)C(=O)N[C@H](C(=O)N[C@@H](CC(C)C)C(=O)N[C@@H](CCC(=O)O)C(N)=O)[C@@H](C)O [Example 35, H-ISELFTLE-NH2] (H-ISELFTLE-NH2)
2900 | CSCC[C@H](NC(=O)[C@H](CCC(N)=O)NC(=O)[C@H](CCC(=O)O)NC(=O)[C@H](CCSC)NC(=O)[C@H](CC(C)C)NC(=O)[C@@H]1CCCN1C(=O)CNC(=O)[C@@H]1CCCN1C(=O)[C@@H]1CCCN1C(=O)CNC(=O)CNC(=O)[C@@H]1CCCN1C(=O)CNC(=O)CN)C(=O)NCC(N)=O [Example 36, H-GGPGGPPGPLMEQMG-NH2] (H-GGPGGPPGPLMEQMG-NH2)
800 | CC(C)C[C@H](NC(=O)[C@H](C)N)C(=O)N[C@@H](CCC(=O)O)C(=O)N[C@@H](Cc1c[nH]c2ccccc12)C(=O)N[C@@H](CC(C)C)C(=O)NCC(=O)N[C@@H](C)C(=O)N[C@@H](CC(=O)O)C(=O)N[C@@H](CCCNC(=N)N)C(=O)N[C@@H](CC(N)=O)C(=O)N[C@@H](CCC(=O)O)C(N)=O [Example 37, H-ALEWLGADRNE-NH2] (H-ALEWLGADRNE-NH2)
500 | CC[C@H](C)[C@H](NC(=O)[C@@H]1CCCN1C(=O)[C@H](CCC(=O)O)NC(=O)[C@H](CC(=O)O)NC(=O)[C@@H](NC(=O)CNC(=O)[C@H](CCC(=O)O)NC(=O)[C@H](Cc1ccccc1)NC(=O)[C@H](CC(=O)O)NC(=O)[C@@H](NC(=O)[C@@H](N)CC(=O)O)C(C)C)[C@@H](C)O)C(=O)N[C@@H](Cc1ccccc1)C(N)=O [Example 38, H-DVDFEGTDEPIF-NH2] (H-DVDFEGTDEPIF-NH2)
400 | CC(C)C[C@H](NC(=O)[C@H](C)NC(=O)[C@H](CCCCN)NC(=O)CNC(=O)[C@@H]1CCCN1C(=O)[C@@H](NC(=O)[C@H](C)NC(=O)CN)[C@@H](C)O)C(=O)N[C@H](C(=O)N[C@@H](C)C(=O)N[C@H](C(=O)N1CCC[C@H]1C(N)=O)[C@@H](C)O)C(C)C [Example 39, H-GATPGKALVATP-NH2] (H-GATPGKALVATP-NH2)
